Calls of active or inactive are those of the source.
Key:
[1] = tested on: HEK293; assay: EBV LMP1 TES2 canonical NF-kB signalling blockers – cell-based, HEK293, luciferase, cherry-pick, dose response (AID 588343); assay type: functional; settings: Homo sapiens
[2] = alpha-synuclein stem-loop luciferase translation blockers – H4 neuroglioma cells, luminescence, confirmation (AID 1988); assay type: functional, cell-based
[3] = viability loss in HEK293T cells – cell-based, cherry-picks, cytotoxicity control for HIV Vif inhibitor project, dose response (AID 652208); assay type: functional
[4] = Luminescence Cell-Based Dose Response HTS to Identify Inhibitors of 5'UTR Stem-Loop Driven Prion Protein mRNA Translation in H4 Neuroglioblastoma Cells. [Related pubchem assays: 1827 (Project Summary), 1813 (Primary HTS)]; assay type: functional
[5] = luciferase reporter signal suppression in cells – H4 neuroglioma cells, luminescence, dose response (AID 1990); assay type: functional, cell-based
[6] = target: Galanin receptor type 3 (Homo sapiens, UniProt O60755); assay: Fluorescence-based cell-based primary high throughput dose response assay to identify antagonists of the Galanin Receptor 3 (GalR3).; assay type: functional
[7] = target: T1, Type-1 angiotensin II receptor (Homo sapiens, UniProt P30556); assay: antagonism of angiotensin II type 1 receptor – cell-based, uHTS hits, selectivity assay for APJ receptor antagonist project, dose response (AID 463214); assay type: functional;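 note: antagonist potency against angiotensin II stimulated AT1 response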
T1 sequence (P30556 whole entry): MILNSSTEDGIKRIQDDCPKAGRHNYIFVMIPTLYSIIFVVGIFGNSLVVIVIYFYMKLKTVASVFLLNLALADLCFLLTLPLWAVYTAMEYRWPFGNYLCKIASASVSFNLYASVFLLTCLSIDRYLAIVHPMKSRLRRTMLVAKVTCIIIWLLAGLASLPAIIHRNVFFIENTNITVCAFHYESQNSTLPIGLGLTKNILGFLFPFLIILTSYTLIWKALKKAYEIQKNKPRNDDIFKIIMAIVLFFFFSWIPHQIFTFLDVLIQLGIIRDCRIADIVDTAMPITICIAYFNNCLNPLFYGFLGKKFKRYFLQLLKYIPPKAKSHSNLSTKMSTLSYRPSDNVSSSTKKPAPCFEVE

[8] = target: Beta-galactosidase (Escherichia coli, UniProt Q8VNN2); assay: PubChem AID 485352; assay type: functional
[9] = target: Beta Lactamase (Pseudomonas aeruginosa, UniProt Q932Y6); assay: BLA reporter interference, concentration series – BLA reporter cells, FRET fluorescence, artefact control for NOD2-RIPK2 interaction inhibitor project, dose response (AID 651552); assay type: functional, cell-based
[10] = Fluorescence-based cell-based high throughput dose response assay for inhibitors of the interaction of nucleotide-binding oligomerization domain containing 2 (NOD2) and the receptor-interacting serine-threonine kinase 2 (RIPK2).; assay type: functional; settings: Homo sapiens
[11] = target: T2, Fatty acid synthase (Homo sapiens, UniProt P49327); assay: inhibition of human FAS-TE enzyme activity – biochemical, endpoint fluorescence intensity, uHTS hits, dose response (AID 624327); assay type: functional;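 note: fluorescence from hydrolysis of an O-methyl fluorescein acyl ester substrate by the enzyme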
[12] = target: T2, Fatty acid synthase; assay: inhibition of human FAS-TE enzyme activity – biochemical, kinetic fluorescence intensity, dose response (AID 624326); assay type: functional;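 note: rate of fluorescence rise from hydrolysis of a fluorogenic O-methyl fluorescein ester substrate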
[13] = target: ADP-ribosylation factor GTPase-activating protein 1 (Rattus norvegicus, UniProt Q62848); assay: Fluorescence polarization-based biochemical high throughput dose response screening assay to identify inhibitors of ADP-ribosylation factor GTPase activating protein 1 (ARFGAP1).; assay type: functional
[14] = HIV-1 AD8 envelope cell-cell fusion blockers – cherry-pick, dose response (AID 652062); assay type: functional, cell-based;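 note: luciferase signal from cell-cell fusion driven by HIV-1 clade B AD8 Env; potency is for inhibitors of fusion seen as a drop in luminescence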
[15] = viability loss in CEM21 cells – cell-based, CellTiter-Glo luminescence, cherry-picked, cytotoxicity control for viral fusion inhibitor project, dose response (AID 652042); assay type: functional;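 note: potency for signal decrease meaning cytotoxicity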
[16] = target: Genome polyprotein (dengue virus type 2, UniProt P29990); assay: flavivirus cap methylation enzyme inhibition – biochemical, confirmation dose response, primary screen (AID 588689); assay type: functional
[17] = target: T3, Zinc finger protein mex-5 (Caenorhabditis elegans, UniProt Q9XUB2); assay: potency of MEX-5 RNA-binding blockers – biochemical, C. elegans, fluorescence polarization, dose response (AID 1960)
T3 sequence (Q9XUB2 whole entry): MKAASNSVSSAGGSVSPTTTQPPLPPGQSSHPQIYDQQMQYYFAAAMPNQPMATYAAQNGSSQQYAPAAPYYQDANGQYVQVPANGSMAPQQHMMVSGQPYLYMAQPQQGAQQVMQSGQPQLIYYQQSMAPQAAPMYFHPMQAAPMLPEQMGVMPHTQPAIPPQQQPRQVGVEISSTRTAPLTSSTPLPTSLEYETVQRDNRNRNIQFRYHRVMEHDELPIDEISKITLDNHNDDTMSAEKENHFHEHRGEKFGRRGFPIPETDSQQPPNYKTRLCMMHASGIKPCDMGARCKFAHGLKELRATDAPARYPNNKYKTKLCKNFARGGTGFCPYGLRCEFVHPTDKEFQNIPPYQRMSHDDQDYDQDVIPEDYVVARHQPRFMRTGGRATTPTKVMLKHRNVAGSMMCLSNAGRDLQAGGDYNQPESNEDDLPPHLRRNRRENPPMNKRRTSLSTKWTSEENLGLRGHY

[18] = target: Hepatocyte nuclear factor 4-alpha (Homo sapiens, UniProt P41235); assay type: functional, cell-based;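 note: biochemical luminescence-based dose-response counterscreen measuring inhibition of HNF4 dimerization, run alongside a screen for blockers of ABHD5–perilipin-5 interaction; split luciferase complementation of HNF4 fusion proteins in cell lysate measuring dimerization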
[19] = target: T4, Protein skinhead-1 (Caenorhabditis elegans, UniProt P34707); assay type: functional
T4 sequence (P34707 whole entry): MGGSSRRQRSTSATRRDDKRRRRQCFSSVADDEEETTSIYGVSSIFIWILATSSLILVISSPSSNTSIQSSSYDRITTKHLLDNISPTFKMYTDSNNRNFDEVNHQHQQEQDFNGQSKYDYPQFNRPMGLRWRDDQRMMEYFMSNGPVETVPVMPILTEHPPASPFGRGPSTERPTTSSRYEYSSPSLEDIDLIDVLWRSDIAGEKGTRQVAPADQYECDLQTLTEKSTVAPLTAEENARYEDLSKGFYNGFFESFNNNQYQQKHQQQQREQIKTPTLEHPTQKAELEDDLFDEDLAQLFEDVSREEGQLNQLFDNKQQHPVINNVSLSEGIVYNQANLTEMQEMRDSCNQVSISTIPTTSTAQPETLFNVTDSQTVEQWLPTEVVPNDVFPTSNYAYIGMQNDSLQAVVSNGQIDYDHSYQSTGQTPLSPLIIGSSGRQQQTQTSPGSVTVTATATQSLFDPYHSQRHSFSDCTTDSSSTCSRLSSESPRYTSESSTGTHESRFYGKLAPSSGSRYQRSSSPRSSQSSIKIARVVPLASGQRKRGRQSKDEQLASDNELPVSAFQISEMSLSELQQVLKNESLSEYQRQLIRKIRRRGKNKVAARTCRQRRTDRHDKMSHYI

[20] = target: T5, RNA-binding protein pos-1 (Caenorhabditis elegans, UniProt G5EF15); assay: disruptors of C. elegans POS-1 RNA interaction – biochemical, fluorescence polarization, dose response (AID 1964);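 note: purified POS-1 fused to maltose binding protein made in E. coli; potency of compounds blocking POS-1 binding to fluorescent RNA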
T5 sequence (G5EF15 whole entry): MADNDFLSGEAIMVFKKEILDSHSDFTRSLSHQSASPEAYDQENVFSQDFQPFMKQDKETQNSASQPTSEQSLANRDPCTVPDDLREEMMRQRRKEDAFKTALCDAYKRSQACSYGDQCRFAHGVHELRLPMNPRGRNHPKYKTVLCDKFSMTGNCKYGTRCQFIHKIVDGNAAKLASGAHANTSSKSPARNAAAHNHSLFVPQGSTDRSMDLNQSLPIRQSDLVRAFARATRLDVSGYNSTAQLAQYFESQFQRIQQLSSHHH

[21] = tested on: Vero; assay: viability loss in Vero cells – cell-based, plate reader, cherry-pick samples, cytotoxicity control, dose response (AID 687020); assay type: functional; settings: Chlorocebus sabaeus
[22] = target: Arf-GAP with SH3 domain, ANK repeat and PH domain-containing protein 1 (Homo sapiens, UniProt Q9ULH1); assay type: functional;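 note: biochemical fluorescence polarization dose–response screen measuring inhibition of ASAP1; ASAP1 GAP domain stimulating GTP hydrolysis by truncated human ARF1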
[23] = target: T6, DNA repair and recombination protein RAD54-like (Homo sapiens, UniProt Q92698); assay: RAD54 Holliday junction migration blockers – biochemical, fluorescence, cherry-picked samples, dose series, confirmation (AID 651657); assay type: functional
T6 sequence (Q92698 whole entry): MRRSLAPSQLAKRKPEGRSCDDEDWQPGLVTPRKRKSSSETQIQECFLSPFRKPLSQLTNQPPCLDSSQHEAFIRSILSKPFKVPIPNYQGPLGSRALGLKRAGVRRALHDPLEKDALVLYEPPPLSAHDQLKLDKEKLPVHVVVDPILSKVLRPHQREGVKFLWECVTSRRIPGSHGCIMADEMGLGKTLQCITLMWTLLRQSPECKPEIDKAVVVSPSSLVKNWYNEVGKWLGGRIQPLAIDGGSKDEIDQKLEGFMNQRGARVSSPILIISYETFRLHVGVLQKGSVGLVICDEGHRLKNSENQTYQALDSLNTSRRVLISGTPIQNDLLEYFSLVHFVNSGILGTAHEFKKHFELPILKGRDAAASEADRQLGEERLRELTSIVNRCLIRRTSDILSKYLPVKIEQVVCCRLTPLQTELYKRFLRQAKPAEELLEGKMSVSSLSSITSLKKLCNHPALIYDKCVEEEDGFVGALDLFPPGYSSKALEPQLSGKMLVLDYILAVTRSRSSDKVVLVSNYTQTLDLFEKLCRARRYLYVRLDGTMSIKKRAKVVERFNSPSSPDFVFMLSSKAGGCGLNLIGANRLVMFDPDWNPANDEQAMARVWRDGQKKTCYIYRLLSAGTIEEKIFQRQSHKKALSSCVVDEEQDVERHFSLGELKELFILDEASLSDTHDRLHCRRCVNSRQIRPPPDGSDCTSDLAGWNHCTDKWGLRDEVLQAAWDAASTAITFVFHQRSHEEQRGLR

[24] = acridine orange displacement from DNA – biochemical, fluorescence polarization, cherry-pick, artefact control for RAD54 inhibitor project, dose response (AID 651673); assay type: functional
[25] = target: T7, Corticotropin-releasing factor receptor 2/Corticotropin-releasing factor-binding protein (Homo sapiens, UniProt P24387+Q13324); assay: Dose Response confirmation of uHTS hits for small molecule antagonists of the CRF-binding protein and CRF-R2 receptor complex.; assay type: functional; settings: read-out: IC50_Mean
T7 sequence (Q13324 whole entry): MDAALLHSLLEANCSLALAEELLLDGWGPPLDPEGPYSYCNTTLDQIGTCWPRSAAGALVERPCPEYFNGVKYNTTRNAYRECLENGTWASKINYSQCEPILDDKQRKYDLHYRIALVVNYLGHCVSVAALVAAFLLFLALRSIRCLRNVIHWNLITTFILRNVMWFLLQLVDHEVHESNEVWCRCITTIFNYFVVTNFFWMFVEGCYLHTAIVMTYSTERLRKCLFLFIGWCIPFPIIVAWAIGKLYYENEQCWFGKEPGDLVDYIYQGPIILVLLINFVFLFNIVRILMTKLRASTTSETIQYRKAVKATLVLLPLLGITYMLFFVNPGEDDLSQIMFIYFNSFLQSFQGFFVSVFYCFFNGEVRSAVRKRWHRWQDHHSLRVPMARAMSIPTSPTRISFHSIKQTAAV
T7 sequence (P24387 whole entry): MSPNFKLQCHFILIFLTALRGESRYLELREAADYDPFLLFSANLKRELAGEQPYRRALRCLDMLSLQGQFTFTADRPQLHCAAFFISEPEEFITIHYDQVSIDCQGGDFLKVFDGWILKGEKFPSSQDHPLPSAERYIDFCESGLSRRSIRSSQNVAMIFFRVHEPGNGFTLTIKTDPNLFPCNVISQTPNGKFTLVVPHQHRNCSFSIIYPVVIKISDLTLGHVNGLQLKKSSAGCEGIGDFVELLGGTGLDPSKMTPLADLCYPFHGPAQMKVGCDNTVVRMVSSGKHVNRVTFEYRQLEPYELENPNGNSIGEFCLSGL

[26] = target: T7, Corticotropin-releasing factor receptor 2/Corticotropin-releasing factor-binding protein; assay: activators of CRF receptor 2 with binding protein – uHTS hits, confirmation (AID 602473); assay type: functional; settings: read-out: EC50_Mean
[27] = blockers of CRF-binding protein–CRF-R2 complex – cell-based, uHTS hits, 384-well, dose response (AID 651639); assay type: functional, Homo sapiens; settings: read-out: IC50_Mean

Chain of Arf-GAP with SH3 domain, ANK repeat and PH domain-containing protein 1 (Q9ULH1 whole entry, the tested form may be a part): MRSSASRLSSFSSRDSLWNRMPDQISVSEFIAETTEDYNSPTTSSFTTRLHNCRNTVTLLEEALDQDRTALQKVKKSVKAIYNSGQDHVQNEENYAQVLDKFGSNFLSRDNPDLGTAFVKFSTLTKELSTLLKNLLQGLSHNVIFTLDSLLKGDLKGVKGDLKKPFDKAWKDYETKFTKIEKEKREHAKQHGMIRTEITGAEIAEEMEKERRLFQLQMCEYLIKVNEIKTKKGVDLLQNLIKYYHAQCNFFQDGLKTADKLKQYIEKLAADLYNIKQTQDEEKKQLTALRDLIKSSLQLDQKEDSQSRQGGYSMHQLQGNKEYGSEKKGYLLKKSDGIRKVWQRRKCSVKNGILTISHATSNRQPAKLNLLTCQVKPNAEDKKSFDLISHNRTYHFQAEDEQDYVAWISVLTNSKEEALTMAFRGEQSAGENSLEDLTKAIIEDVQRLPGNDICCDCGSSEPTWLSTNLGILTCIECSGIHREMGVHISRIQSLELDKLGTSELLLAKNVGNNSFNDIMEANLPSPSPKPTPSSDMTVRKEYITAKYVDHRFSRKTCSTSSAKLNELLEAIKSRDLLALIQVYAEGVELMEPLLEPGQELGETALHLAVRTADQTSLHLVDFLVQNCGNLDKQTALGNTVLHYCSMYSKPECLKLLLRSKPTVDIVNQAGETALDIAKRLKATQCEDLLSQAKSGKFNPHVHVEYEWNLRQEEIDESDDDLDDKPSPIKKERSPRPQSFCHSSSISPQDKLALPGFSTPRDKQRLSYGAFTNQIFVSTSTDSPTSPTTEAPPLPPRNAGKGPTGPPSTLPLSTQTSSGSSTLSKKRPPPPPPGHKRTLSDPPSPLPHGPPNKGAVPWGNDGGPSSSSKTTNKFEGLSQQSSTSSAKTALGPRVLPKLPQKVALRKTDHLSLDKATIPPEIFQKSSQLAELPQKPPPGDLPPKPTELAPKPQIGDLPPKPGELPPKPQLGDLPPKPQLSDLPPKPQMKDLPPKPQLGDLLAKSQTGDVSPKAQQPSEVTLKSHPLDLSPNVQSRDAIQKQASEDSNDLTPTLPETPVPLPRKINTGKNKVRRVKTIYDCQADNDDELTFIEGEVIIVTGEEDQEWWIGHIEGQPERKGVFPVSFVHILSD
Chain of ADP-ribosylation factor GTPase-activating protein 1 (Q62848 whole entry, the tested form may be a part): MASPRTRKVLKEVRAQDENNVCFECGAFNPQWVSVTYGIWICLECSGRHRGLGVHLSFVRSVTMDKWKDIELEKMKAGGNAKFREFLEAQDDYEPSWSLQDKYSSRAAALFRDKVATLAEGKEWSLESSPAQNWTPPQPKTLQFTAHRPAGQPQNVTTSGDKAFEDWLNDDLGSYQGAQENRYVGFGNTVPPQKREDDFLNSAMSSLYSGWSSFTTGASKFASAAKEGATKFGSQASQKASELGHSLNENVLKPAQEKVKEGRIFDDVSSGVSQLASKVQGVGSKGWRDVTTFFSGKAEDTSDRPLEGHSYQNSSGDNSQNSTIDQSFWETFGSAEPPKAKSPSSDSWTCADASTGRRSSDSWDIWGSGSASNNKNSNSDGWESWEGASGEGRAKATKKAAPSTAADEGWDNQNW
T2 sequence (P49327 whole entry): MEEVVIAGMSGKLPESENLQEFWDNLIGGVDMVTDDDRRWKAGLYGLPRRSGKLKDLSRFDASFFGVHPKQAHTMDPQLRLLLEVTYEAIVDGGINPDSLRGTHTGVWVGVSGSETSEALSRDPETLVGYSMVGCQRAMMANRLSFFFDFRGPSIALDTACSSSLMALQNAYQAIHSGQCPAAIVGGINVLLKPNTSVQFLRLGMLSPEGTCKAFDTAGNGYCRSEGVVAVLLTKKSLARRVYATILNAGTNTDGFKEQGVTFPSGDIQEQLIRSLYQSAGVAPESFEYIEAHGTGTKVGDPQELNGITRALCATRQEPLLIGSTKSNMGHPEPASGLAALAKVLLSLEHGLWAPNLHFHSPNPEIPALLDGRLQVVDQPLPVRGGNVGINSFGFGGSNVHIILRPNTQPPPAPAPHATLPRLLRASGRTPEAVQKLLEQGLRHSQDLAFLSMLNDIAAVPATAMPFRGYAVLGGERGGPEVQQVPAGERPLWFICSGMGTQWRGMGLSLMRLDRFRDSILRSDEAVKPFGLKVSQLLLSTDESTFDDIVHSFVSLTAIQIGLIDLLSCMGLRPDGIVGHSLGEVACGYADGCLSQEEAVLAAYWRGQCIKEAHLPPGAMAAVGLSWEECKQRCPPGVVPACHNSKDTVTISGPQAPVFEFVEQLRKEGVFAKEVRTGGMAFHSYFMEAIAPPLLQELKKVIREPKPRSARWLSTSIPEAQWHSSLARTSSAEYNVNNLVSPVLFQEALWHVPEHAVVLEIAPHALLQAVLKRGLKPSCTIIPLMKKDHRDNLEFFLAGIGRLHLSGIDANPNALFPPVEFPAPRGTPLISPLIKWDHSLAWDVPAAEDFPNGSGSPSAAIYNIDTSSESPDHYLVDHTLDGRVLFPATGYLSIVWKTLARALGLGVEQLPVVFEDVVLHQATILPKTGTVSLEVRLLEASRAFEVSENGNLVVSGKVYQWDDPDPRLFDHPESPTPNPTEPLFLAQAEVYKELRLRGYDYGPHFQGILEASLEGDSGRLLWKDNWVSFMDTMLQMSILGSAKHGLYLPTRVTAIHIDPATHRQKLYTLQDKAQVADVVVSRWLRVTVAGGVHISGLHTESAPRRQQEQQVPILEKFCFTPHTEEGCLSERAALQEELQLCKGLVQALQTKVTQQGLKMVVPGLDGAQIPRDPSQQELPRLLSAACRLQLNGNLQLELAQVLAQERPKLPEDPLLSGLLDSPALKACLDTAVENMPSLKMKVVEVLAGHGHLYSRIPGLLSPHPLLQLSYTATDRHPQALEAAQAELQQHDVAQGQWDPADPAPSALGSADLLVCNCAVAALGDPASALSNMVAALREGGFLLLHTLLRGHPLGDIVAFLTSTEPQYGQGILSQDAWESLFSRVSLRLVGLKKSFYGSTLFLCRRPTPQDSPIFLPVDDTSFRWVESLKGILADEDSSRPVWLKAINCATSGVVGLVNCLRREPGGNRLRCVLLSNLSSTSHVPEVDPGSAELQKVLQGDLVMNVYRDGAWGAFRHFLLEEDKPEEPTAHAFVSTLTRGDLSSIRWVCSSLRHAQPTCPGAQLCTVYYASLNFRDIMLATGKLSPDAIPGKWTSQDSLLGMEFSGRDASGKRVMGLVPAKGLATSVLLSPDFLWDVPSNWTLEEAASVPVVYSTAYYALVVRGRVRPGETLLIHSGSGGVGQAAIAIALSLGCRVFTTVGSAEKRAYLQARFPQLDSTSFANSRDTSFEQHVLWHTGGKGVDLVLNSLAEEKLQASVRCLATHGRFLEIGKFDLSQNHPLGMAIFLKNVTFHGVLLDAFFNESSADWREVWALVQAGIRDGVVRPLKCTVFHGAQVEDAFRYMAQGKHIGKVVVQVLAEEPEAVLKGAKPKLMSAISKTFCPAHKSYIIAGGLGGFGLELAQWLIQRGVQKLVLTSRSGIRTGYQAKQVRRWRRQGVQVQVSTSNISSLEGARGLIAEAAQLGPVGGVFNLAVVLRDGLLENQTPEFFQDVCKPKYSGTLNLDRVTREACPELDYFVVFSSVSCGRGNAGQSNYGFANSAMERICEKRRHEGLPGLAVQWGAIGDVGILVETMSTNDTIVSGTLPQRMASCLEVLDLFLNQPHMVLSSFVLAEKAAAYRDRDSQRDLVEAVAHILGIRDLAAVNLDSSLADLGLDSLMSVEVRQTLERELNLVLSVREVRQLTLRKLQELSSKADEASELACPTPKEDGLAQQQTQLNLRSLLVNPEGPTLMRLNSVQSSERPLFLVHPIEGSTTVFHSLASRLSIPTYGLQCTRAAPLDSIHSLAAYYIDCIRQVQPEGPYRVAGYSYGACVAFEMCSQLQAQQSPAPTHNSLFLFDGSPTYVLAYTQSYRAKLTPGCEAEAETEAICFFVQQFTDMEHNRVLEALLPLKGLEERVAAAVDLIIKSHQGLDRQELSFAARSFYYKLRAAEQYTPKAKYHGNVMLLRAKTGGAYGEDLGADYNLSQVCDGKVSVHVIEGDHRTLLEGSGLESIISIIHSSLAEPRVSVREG
Chain of Galanin receptor type 3 (O60755 whole entry): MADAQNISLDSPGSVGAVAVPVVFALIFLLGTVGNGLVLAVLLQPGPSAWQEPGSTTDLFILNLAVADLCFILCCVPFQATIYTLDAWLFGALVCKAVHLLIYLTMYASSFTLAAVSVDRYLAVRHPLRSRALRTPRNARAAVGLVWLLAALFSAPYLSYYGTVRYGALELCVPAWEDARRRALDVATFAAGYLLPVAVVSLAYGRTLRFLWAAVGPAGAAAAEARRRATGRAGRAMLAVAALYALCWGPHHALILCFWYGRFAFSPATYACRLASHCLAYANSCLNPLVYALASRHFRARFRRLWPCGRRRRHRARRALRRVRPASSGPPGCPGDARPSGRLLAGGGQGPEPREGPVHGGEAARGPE
Chain of Beta Lactamase (Q932Y6 whole entry, the tested form may be a part): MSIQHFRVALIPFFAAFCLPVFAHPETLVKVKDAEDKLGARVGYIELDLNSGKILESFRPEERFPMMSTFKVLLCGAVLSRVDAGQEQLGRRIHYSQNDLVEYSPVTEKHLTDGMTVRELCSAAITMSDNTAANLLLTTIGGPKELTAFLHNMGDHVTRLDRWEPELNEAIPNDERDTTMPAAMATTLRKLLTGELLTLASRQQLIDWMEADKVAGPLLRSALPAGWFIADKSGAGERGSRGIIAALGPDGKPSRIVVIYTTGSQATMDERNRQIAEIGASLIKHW

COc1ccc2cc(-c3cc(C(=O)OCC(=O)NC4CCS(=O)(=O)C4)c4ccccc4n3)ccc2c1 (configuration not stated)
AC50 [1]: 1.09 µM (active)
EC50 [2]: 6.8 µM (active)
AC50 [3]: 29.3 µM (active)
EC50 [4]: 7.41 µM (active)
EC50 [5]: 10.1 µM (inconclusive)

Fc1ccc(NC(=S)NNc2ncc(C(F)(F)F)cc2Cl)c(F)c1
IC50 [6]: 1.79 µM (active)
IC50 [7]: 15.6 µM (active)
EC50 [8]: > 40 µM (inactive)

CCOC(=O)[C@]12Cc3ccc(C)cc3[C@H]1N(C1CCCCC1)C(=O)c1ccccc12
IC50 [9]: 20 µM (inactive)
IC50 [10]: 2.19 µM (active)
IC50 [11]: 6.12 µM (active)
IC50 [12]: 6.79 µM (active)

O=C(Nc1ccc(CN2CCOCC2)cc1)c1ccc(-c2cccc(Cl)c2)o1
IC50 [13]: 81.7 µM (inactive)
AC50 [14]: 32.2 µM (active)
AC50 [15]: 44.2 µM (active)

COC/C=C/C1=CC2=CC(=O)C(C)(OC(=O)C3CCCC3)C(=O)C2=CO1 (configuration not stated)
IC50 [16]: 90.2 µM (active)
EC50 [17]: > 300 µM (not active)
IC50 [18]: 11.4 µM (inactive)
IC50 [19]: > 100 µM (inactive)
EC50 [20]: > 300 µM (not active)

COc1ccc2ccccc2c1CNC(C)c1ccccc1 (configuration not stated)
AC50 [21]: 31 µM (active)

COc1cc(/C=C(\C#N)c2ccccn2)ccc1OCC(=O)Nc1c(Cl)cccc1Cl
IC50 [13]: 96.6 µM (inactive)

N=C(N/N=C/c1ccnc2ccccc12)SC1CC(=O)N(c2ccc(Br)cc2)C1=O (configuration not stated)
IC50 [22]: 12.7 µM (inactive)

CCOC(=O)c1cnc2c(C)cc(Cl)cc2c1NCCCN1CCOCC1
AC50 [23]: 17.4 µM (active)
AC50 [24]: 60.9 µM (active)

COc1ccc(OC)c(S(=O)(=O)N2c3ccccc3CC2C)c1 (configuration not stated)
IC50 [25]: 33.9 µM (active)
EC50 [26]: > 53 µM (inactive)
IC50 [27]: 3.48 µM (active)

CC(C)(C)c1cc(C(=O)NNC(=O)Nc2cccc(Cl)c2)n(Cc2ccccc2)n1
IC50 [25]: 2 µM (active)
EC50 [26]: > 53 µM (inactive)
IC50 [27]: 5.13 µM (active)

O=C(Cn1nc(-c2ccc3c(c2)OCCO3)ccc1=O)Nc1ccc(-n2cnnn2)cc1
IC50 [22]: 38.5 µM (inactive)

— ChEMBL document CHEMBL1201862, “PubChem BioAssay data set” (2004)
